# Tested on: Staphylococcus aureus
# Assay: Antibacterial activity against Staphylococcus aureus ATCC 6538 assessed as inhibition of bacterial growth incubated for 24 hrs by CLSI based microdilution method
# Assay type: functional
row,MIC99.9 [µg/mL],Compound
1,2.5,CC(=O)O[C@H]1C[C@@]2(C)[C@@H](C[C@@H](O)[C@H]3[C@@]4(C)CC[C@@H](O)[C@@H](C)[C@@H]4CC[C@@]32C)/C1=C(\CC/C=C(\C)CO)C(=O)O
2,>100,C/C(=C\CCC1=C2[C@H](C[C@@]3(C)[C@H]2C[C@@H](O)[C@H]2[C@@]4(C)CC[C@@H](O)[C@@H](C)[C@@H]4CC[C@@]23C)OC1=O)CO
3,0.078,CC(=O)O[C@H]1C[C@@]2(C)[C@@H](CC(=O)[C@H]3[C@@]4(C)CC[C@@H](O)[C@@H](C)[C@@H]4CC[C@@]32C)/C1=C(\CCC=C(C)C)C(=O)O

# The remaining lines, values behind:
row,Compound,MIC99.9 [µg/mL]
1,C/C(=C\CCC1=C2[C@H](C[C@@]3(C)[C@H]2C[C@@H](O)[C@H]2[C@@]4(C)CC[C@@H](O)[C@@H](CO)[C@@H]4CC[C@@]23C)OC1=O)C(=O)O,>100
2,C/C(=C\CCC1=C2[C@H](C[C@@]3(C)[C@H]2C[C@@H](O)[C@H]2[C@@]4(C)CC[C@@H](O)[C@@H](C)[C@@H]4CC[C@@]23CO)OC1=O)C(=O)O,>100
3,C/C(=C\CCC1=C2[C@H](C[C@@]3(C)[C@H]2C[C@@H](O)[C@H]2[C@@]4(C)CC[C@@H](O)[C@@H](C)[C@@H]4C[C@@H](O)[C@@]23C)OC1=O)C(=O)O,>100

# — ChEMBL document CHEMBL4831550, “Fusidane-Type Antibiotics from the Marine-Derived Fungus Simplicillium sp. SCSIO 41513” (2021)
